According to ChEMBL document CHEMBL2311280, “Protein tyrosine phosphatase 1B inhibitory effect by dammarane-type triterpenes from hydrolyzate of total Gynostemma pentaphyllum saponins” (Bioorg Med Chem Lett, 2013):

These compounds were tested against T1, Tyrosine-protein phosphatase non-receptor type 1 (Homo sapiens, UniProt P18031) (assay: Inhibition of PTP1B (unknown origin)).
T1 sequence (P18031 whole entry): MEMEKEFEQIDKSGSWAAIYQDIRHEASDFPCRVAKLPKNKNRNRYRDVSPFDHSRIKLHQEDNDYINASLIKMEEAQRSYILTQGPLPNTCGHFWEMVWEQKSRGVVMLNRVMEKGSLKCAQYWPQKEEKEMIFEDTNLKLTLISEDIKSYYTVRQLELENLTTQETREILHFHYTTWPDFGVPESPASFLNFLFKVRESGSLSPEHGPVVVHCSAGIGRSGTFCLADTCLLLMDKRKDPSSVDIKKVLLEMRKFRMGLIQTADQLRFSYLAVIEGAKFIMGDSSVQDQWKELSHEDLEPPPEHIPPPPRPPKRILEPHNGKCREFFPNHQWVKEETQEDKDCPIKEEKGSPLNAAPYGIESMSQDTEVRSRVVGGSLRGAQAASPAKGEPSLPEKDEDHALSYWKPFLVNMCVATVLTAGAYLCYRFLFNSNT

| Compound | IC50 [µM] |
| --- | --- |
| C/C(=C/CCC(C)(C)O)[C@H]1CC[C@]2(C)[C@@H]1[C@H](O)C[C@@H]1[C@@]3(C)CC[C@H](O)C(C)(C)[C@@H]3CC[C@]12C | > 50 |
| C=C(C)CCC[C@](C)(O)[C@H]1CC[C@]2(C)[C@@H]1[C@H](O)C[C@@H]1[C@@]3(C)CC[C@H](O)C(C)(C)[C@@H]3CC[C@]12C | > 50 |
| CC1(C)[C@@H](O)CC[C@]2(C)[C@H]3CC[C@@H]4[C@@H](C(=O)O)CC[C@@]4(C)[C@]3(C)CC[C@@H]12 | 13.1 |
| CC(C)=CCC[C@](C)(O)[C@H]1CC[C@]2(C)[C@@H]1[C@H](O)C[C@@H]1[C@@]3(C)CC[C@H](O)C(C)(C)[C@@H]3CC[C@]12C | 23.6 |
| CC(C)=C1CC=C([C@H]2CC[C@]3(C)[C@@H]2CC[C@@H]2[C@@]4(C)CC[C@H](O)C(C)(C)[C@@H]4CC[C@]23C)C1=O [GYPENSAPOGENIN C] | > 50 |
| CC(C)=C[C@H]1C=C([C@H]2CC[C@]3(C)[C@@H]2CC[C@@H]2[C@@]4(C)CC[C@H](O)C(C)(C)[C@@H]4CC[C@]23C)C(=O)O1 [GYPENSAPOGENIN D] | > 50 |
| CC(C)(O)C[C@@H]1C=C([C@H]2CC[C@]3(C)[C@@H]2CC[C@@H]2[C@@]4(C)CC[C@H](O)C(C)(C)[C@@H]4CC[C@]23C)C(=O)O1 [GYPENSAPOGENIN F] | 49 |

Further lines, results first:

| IC50 [µM] | Compound |
| --- | --- |
| 15.2 | CC(C)=CCC[C@@](O)(CO)[C@H]1CC[C@]2(C)[C@@H]1CC[C@@H]1[C@@]3(C)CC[C@H](O)C(C)(C)[C@@H]3CC[C@]12C |
| > 50 | C=C(C)[C@@H](O)CC[C@](C)(O)[C@H]1CC[C@]2(C)[C@@H]1[C@H](O)C[C@@H]1[C@@]3(C)CC[C@H](O)C(C)(C)[C@@H]3CC[C@]12C |
| 27.8 | CC(C)=C[C@@H]1C[C@](O)([C@H]2CC[C@]3(C)[C@@H]2CC[C@@H]2[C@@]4(C)CC[C@H](O)C(C)(C)[C@@H]4CC[C@]23C)C(=O)O1 |
| 8.4 | CC(C)=C[C@H]1C[C@@](O)([C@H]2CC[C@]3(C)[C@@H]2CC[C@@H]2[C@@]4(C)CC[C@H](O)C(C)(C)[C@@H]4CC[C@]23C)C(=O)O1 |
| 24.5 | CC(C)=C1CC([C@H]2CC[C@]3(C)[C@@H]2CC[C@@H]2C4=C(CC[C@]23C)C(C)(C)[C@@H]2CC[C@H]4O2)=CC1=O [GYPENSAPOGENIN B] |
| 23 | CC(C)(O)C[C@H]1C=C([C@H]2CC[C@]3(C)[C@@H]2CC[C@@H]2[C@@]4(C)CC[C@H](O)C(C)(C)[C@@H]4CC[C@]23C)C(=O)O1 [GYPENSAPOGENIN E] |
| 24.5 | CC(=O)O[C@H]1CC[C@]2(C)[C@H]3CC[C@@H]4[C@@H](C5=C[C@H](CC(C)(C)O)OC5=O)CC[C@@]4(C)[C@]3(C)CC[C@H]2C1(C)C [GYPENSAPOGENIN G] |
